In series [1] the test system is Aspergillus fumigatus (ATCC MYA-4609/AF293/CBS 101355). The experiment in a line: Measurement of minimum inhibitory concentration (MIC), AF293. The series is classed as cell-based. The conditions noted are these: CBS101355; Aspergillus fumigatus AF293, 35° C., 48 hours, RPMI1640; read-out: AF293: MIC. The protocol: (§1) New streaks are made with glycerol stock solution of the strains of Aspergillus fumigatus (ATCC MYA-4609/AF 293/CBS 101355) on Sabouraud's dextrose agar (SDA), incubate at 35° C. and a humidity of 40-70% for 72 hours. Other strains are processed as the same as AF293.
(§2) RPMI1640: one packet of RPMI1640 powder is dissolved in 1 L purified water and mixed well, add 0.165M MOPS, adjust the pH to 7.0, sterilize by filtration with 0.22 um membrane, and store at 4° C. for no more than 3 months.
(§3) Physiological saline: weigh 9 g of sodium chloride powder and dissolve in 1 L of purified water, and mixed well. Sterilize at 121° C. for 30 min, store at room temperature (RT) for no more than 1 week.
(§4) Dissolve the test compound and stock solution of one control compound with DMSO and obtain solutions at a concentration of 12.8 mg/mL
(§5) The maximum concentration of each compound is 0.8 mg/mL (e.g., 150 μL of dimethyl sulfoxide+10 uL of 12.8 mg/mL compound/control). Column 1 is filled with 40 μL of compound and columns 2 to 11 with 20 μL of dimethyl sulfoxide. Transfer 20 μL of compound from column 1 to column 2 to dilute the concentration. Repeat the above steps up to column 11 to give 2× serial dilutions.
(§6) 2 μL of the above 2× serial dilutions are injected into each hole of the corresponding test plate using a multichannel pipette.
(§7) Drop 5 ml of saline on the Aspergillus fumigatus SDA plate. The spores were carefully wiped off from the surface of the plate with an L-shaped coating rod. Then the suspension is transferred into a sterile tube. After shaking, let the tube stand for 5 to 10 minutes. Count the number of spores in the upper suspension with a hemocytometer and check the purity. Adjust the inoculum concentration to 0.2-2.5×10^4 spores/mL.
(§8) Inject 198 μL of diluted inoculum into each holes of the corresponding test plate using a multichannel pipette.
(§9) Incubate at 35° C. for 48 hours.
(§10) To facilitate scoring of the presence or absence of growth on the wall, a magnifying glass is used. The tested 96-well microplates were photographed and the optical density at 530 nm is read with an enzyme marker (Tecan Spark).

Series [2] has as its system Aspergillus fumigatus (ATCC-204305). The experiment in a line: Measurement of minimum inhibitory concentration (MIC), ATCC 204305. The format is cell-based. The conditions noted are these: ATCC204305; Aspergillus fumigatus ATCC 204305, 35° C., 48 hours. As to the method:
New streaks are made with glycerol stock solution of the strains of Aspergillus [NT] MYA-4609/AF 293/CBS 101355) on Sabouraud's dextrose agar (SDA), incubate at 35° C. and a humidity of 40-70% for 72 hours. Other strains are processed as the same as AF293. RPMI1640: one packet of RPMI1640 powder is dissolved in 1 L purified water and mixed well, add 0.165M MOPS, adjust the pH to 7.0, sterilize by filtration with 0.22 um membrane, and store at 4° C. for no more than 3 months. Physiological saline: weigh 9 g of sodium chloride powder and dissolve in 1 L of purified water, and mixed well. […] Dissolve the test compound and stock solution of one control compound with DMSO and obtain solutions at a concentration of 12.8 mg/mL The maximum concentration of each compound is 0.8 mg/mL (e.g., 150 μL of dimethyl sulfoxide+10 uL of 12.8 mg/mL compound/control). […] Repeat the above steps up to column 11 to give 2× serial dilutions. 2 μL of the above 2× serial dilutions are injected into each hole of the corresponding test plate using a multichannel pipette. Drop 5 ml of saline on the Aspergillus fumigatus SDA plate. The spores were carefully wiped off from the surface of the plate with an L-shaped coating rod. Then the suspension is transferred into a sterile tube. After shaking, let the tube stand for 5 to 10 minutes. Count the number of spores in the upper suspension with a hemocytometer and check the purity. Adjust the inoculum concentration to 0.2-2.5×10^4 spores/mL. Inject 198 μL of diluted inoculum into each holes of the corresponding test plate using a multichannel pipette. Incubate at 35° C. for 48 hours. […] To facilitate scoring of the presence or absence of growth on the wall, a magnifying glass is used. The tested 96-well microplates were photographed and the optical density at 530 nm is read with an enzyme marker (Tecan Spark).

Series [3] concerns Aspergillus flavus (ATCC 204304). Nature of the series: Measurement of minimum inhibitory concentration (MIC), ATCC 204304. The format is cell-based. The conditions noted are these: ATCC204304; Aspergillus flavus ATCC 204304, 35° C., 48 hours. The protocol:
as §1, §2, §3, §4, §5, §6, §7, §8, §9, §10

Series [4] relates to Aspergillus flavus (ATCC MYA-1004). Nature of the series: Measurement of minimum inhibitory concentration (MIC), ATCC MYA-1004. The series is classed as cell-based. To be noted: Aspergillus flavus ATCC MYA-1004, 35° C., 48 hours. As to the method: as §1, §2, §3, §4, §5, §6, §7, §8, §9, §10
Series [5] is described as follows: Liver microsomal stability test, human. The series is classed as in vitro ADME. To be noted: Human liver microsomes; for CLint scaled / half-life: 0.5 mg/mL protein, 37° C., NADPH. As to the method: (§11) • 1: Add 10 μL of working solutions of test product or reference product and 80 μL of microsomal working solution (liver microsomal protein concentration of 0.5 mg/mL) to wells of TO, T5, T10, T20, T30, T60, and NCF60, and only microsomal working solution is added to the Blank60 wells. Then the samples of Blank60, T10, T20, T30 and T60, except for TO and NCF60, are placed in a water bath set at 37° C. and incubate for approximately 10 mins; • 2: Add 300 μL of termination solution (acetonitrile solution containing 200 ng/mL tolbutamide and 200 ng/mL labetalol) to Sample TO, followed by 10 ul of NADPH regeneration system working solution; • 3: After incubation of Blank60, T5, T10, T20, T30 and T60 on incubation plates, add 10 μL of NADPH regeneration system working solution to each sample well to start the reaction, and 10 uL of 100 mM potassium phosphate buffer is add to the NCF60 sample wells; • 4: After incubation for appropriate times (e.g., 5, 10, 20, 30 and 60 mins), 300 μL of termination solution is add to each sample well of test product and reference product on Blank60, T5, T10, T20, T30, T60 and NCF60 plates, respectively, to terminate the reaction. • 5: All sample plates are shaken well and centrifuged at 4000 rpm for 20 min, take 100 μL of the supernatant of the test product or reference product, dilute in 300 μL of pure water for LC-MS/MS analysis, respectively. • 6: Data analysis, T½ and CLint(mic) (μL/min/mg) values are calculated based on the first-order elimination kinetics, and the equations of first-order elimination kinetics are: […]
On the technique in general: Liver microsomes are vesicles of endoplasmic reticulum, rich in cytochrome P450 enzymes.

Series [6] in a line: Liver microsomal stability test, mouse. The series is classed as in vitro ADME. The conditions noted are these: Mouse liver microsomes; for CLint scaled / half-life: 0.5 mg/mL protein, 37° C., NADPH. As to the method:
as §11

The nature of series [7]: Pharmacokinetic test in SD rats, single oral administration. The series is classed as in vivo. The conditions noted are these: SD, rat, plasma, po, 10 mg/kg, single oral administration 10 mg/kg, test compound mixed with F901318, plasma. The protocol: Pharmacokinetic study is performed on SD rats receiving single oral administration of each test compound mixed with F901318 (10 mg/kg, 3 rats per group). Test compounds and F901318 are dissolved with […]+10% solutol+85% saline, vortexed for 1-2 mins and ultra-sonicated for 5-10 mins to form a colorless clear drug solution. The animals are fasted overnight before oral administration, and resumed feeding 4 hours after administration. After oral administration, pharmacokinetic samples are collected from orbital blood of SD rats at 0.083 h, 0.25 h, 0.5 h, 1 h, 2 h, 4 h, 6 h, 8 h, and 24 h, and three whole blood samples are collected at each time point in a volume of 0.2-0.3 mL. Blood samples are placed on ice immediately after collected, and the plasma is separated by centrifugation within 15 min (centrifugation conditions: 8000 rpm, 1 min, and at room temperature).
The collected plasma is stored at −20° C. prior to analysis. Transfer 20 μL of plasma sample into an 0.5 mL EP tube, add 200 μL of working internal standard solution (blank group is without internal standard, using the same volume of solvent instead), vortex and mix for 3 min centrifuge at 13500 rpm for 10 min, take 100 μL of supernatant and analyze with LC-MS/MS.

≈ marks a conversion by molar mass, not a printed value.

As a reminder, the MIC is the smallest concentration in the dilution series that meets the test's criterion for growth inhibition. One may read the CLint scaled as the rate of metabolic loss divided by the concentration. For the compound `Cc1cc(-c2ccccc2)c(C(=O)C(=O)Nc2cc(F)c3c(c2)OCC2CN(c4ncc(F)cn4)CCN32)n1C` (centres unmarked) [Example 4], the MIC came to 0.03 mg/L (≈ 0.0551 µM) in series [1], 0.016 mg/L (≈ 0.0294 µM) in series [2], 0.016 mg/L (≈ 0.0294 µM) in series [3] and 0.008 mg/L (≈ 0.0147 µM) in series [4]. The values for the CLint scaled in series [5] and in series [6] were 3.98 L/h/kg and 6.86 L/h/kg, respectively. The half-life amounted to 18.8 min in series [5] and 21.8 min in series [6]. Moreover, the “Remaining, (T = 60 min)” value in series [5] is 10.5%; in series [6], 14.3%.

Turning to `Cc1cc(-c2ccccc2)c(C(=O)C(=O)Nc2ccc3c(c2)CCC2CN(c4ncc(F)cn4)CCN32)n1C` (centres unmarked) [Example 32, 2-(1,5-dimethyl-3-phenyl-1H-pyrrol-2-yl)-N-(3-(5-fluoropyrimidin-2-yl)-2,3,4,4a,5,6-hexahydro-1H-pyrazino [1,2-a]quinolin-8-yl)-2-oxoacetamide], the MIC in series [1] was 0.008 mg/L (≈ 0.0152 µM); in series [2], 0.03 mg/L (≈ 0.0572 µM); in series [3], 0.016 mg/L (≈ 0.0305 µM); in series [4], 0.016 mg/L (≈ 0.0305 µM). The CLint scaled in series [5] was found to be 3.38 L/h/kg; in series [6], 5.39 L/h/kg. In addition, the half-life was found to be 22.1 min in series [5] and 27.8 min in series [6]. Moreover, the “Remaining, (T = 60 min)” value is 26.6% in series [5] and 26.2% in series [6].

Turning to `Cc1cc(-c2ccccc2)c(C(=O)C(=O)Nc2ccc3c(c2)C[C@@H]2CN(c4ncc(F)cn4)CCN32)n1C` [Example 34, (R)-2-(1,5-dimethyl-3-phenyl-1H-pyrrol-2-yl)-N-(2-(5-fluoropyrimidin-2-yl)-1,2,3,4,10,10a-hexahydropyrazino [1,2-a]indol-8-yl)-2-oxoacetamide], the MIC was found to be 0.016 mg/L (≈ 0.0313 µM) in series [1], 0.03 mg/L (≈ 0.0588 µM) in series [2], 0.016 mg/L (≈ 0.0313 µM) in series [3] and 0.008 mg/L (≈ 0.0157 µM) in series [4]. The CLint scaled came to 1.88 L/h/kg in series [5] and 2.75 L/h/kg in series [6]. In addition, the half-life was found to be 39.9 min in series [5] and 54.4 min in series [6]. Further, the “Remaining, (T = 60 min)” value in series [5] stood at 34.5%; in series [6] it was 48.5%.

The term AUC denotes the area under the concentration-time curve, a measure of exposure. As a reminder, the Cmax is the maximum level reached in the sampled fluid or tissue. As usually defined, the Tmax is the time at which the peak concentration occurs. With `Cc1cc(-c2ccccc2)c(C(=O)C(=O)Nc2ccc3c(c2)OCC2CN(c4ncc(F)cn4)CCN32)n1C` (centres unmarked) [Example 3, 2-(1,5-dimethyl-3-phenyl-1H-pyrrol-2-yl)-N-(3-(5-fluoropyrimidin-2-yl)-1,2,3,4,4a,5-hexahydrobenzo[b]pyrazino[1,2-d][1,4]oxazin-8-yl)-2-oxoacetamide], the MIC in series [1] is 0.125 mg/L (≈ 0.237 µM); in series [2], 0.016 mg/L (≈ 0.0304 µM); in series [3] it was 0.008 mg/L (≈ 0.0152 µM); in series [4], 0.008 mg/L (≈ 0.0152 µM). In addition, in series [7] (read-out: AUC), the AUC is 18.7 µg·h/mL. Further, the Cmax in series [7] (read-out: Cmax) amounted to 1.42 µg/mL. Moreover, the Tmax in series [7] (read-out: Tmax) was found to be 55 min. Also, the half-life in series [7] (read-out: T½ (converted)) was 321 min.

For the origin of these results see patent US20240327423A1, “A SERIES OF PYRROLE DERIVATIVES AND THEIR PREPARATION METHOD AND THERAPEUTIC USE” (SHENZHEN SUNGENING BIO-MEDICAL CO., LTD, priority 2020, published 2024).
